According to ChEMBL document CHEMBL4715760, “Balancing potency, metabolic stability and permeability in pyrrolopyrimidine-based EGFR inhibitors” (Eur J Med Chem, 2016):

Assays:
[1] = target: T1, Epidermal growth factor receptor (Homo sapiens, UniProt P00533); assay: Inhibition of human EGFR using poly[Glu:Tyr] (4:1) as substrate in presence of [gamma33P]ATP by radiometric HotSpot assay
[2] = target: Tyrosine-protein kinase ABL1 (Homo sapiens) (UniProt P00519); assay: Inhibition of recombinant full length human His-tagged ABL1 cytoplasmic domain expressed in baculovirus expression system at 500 nM using Tyr 02 peptide as substrate incubated for 1 hr in presence of ATP at its Km concentration by Z'-LYTE assay relative to control
[3] = target: Receptor tyrosine-protein kinase erbB-4 (Homo sapiens) (UniProt Q15303); assay: Inhibition of recombinant human N-terminal GST-tagged ERBB4 catalytic domain (708 to 993 residues) expressed in baculovirus expression system at 500 nM using Tyr 01 peptide as substrate incubated for 1 hr in presence of ATP at its Km concentration by Z'-LYTE assay relative to control
Chain of Receptor tyrosine-protein kinase erbB-4 (Homo sapiens) (Q15303 whole entry, the tested form may be a part): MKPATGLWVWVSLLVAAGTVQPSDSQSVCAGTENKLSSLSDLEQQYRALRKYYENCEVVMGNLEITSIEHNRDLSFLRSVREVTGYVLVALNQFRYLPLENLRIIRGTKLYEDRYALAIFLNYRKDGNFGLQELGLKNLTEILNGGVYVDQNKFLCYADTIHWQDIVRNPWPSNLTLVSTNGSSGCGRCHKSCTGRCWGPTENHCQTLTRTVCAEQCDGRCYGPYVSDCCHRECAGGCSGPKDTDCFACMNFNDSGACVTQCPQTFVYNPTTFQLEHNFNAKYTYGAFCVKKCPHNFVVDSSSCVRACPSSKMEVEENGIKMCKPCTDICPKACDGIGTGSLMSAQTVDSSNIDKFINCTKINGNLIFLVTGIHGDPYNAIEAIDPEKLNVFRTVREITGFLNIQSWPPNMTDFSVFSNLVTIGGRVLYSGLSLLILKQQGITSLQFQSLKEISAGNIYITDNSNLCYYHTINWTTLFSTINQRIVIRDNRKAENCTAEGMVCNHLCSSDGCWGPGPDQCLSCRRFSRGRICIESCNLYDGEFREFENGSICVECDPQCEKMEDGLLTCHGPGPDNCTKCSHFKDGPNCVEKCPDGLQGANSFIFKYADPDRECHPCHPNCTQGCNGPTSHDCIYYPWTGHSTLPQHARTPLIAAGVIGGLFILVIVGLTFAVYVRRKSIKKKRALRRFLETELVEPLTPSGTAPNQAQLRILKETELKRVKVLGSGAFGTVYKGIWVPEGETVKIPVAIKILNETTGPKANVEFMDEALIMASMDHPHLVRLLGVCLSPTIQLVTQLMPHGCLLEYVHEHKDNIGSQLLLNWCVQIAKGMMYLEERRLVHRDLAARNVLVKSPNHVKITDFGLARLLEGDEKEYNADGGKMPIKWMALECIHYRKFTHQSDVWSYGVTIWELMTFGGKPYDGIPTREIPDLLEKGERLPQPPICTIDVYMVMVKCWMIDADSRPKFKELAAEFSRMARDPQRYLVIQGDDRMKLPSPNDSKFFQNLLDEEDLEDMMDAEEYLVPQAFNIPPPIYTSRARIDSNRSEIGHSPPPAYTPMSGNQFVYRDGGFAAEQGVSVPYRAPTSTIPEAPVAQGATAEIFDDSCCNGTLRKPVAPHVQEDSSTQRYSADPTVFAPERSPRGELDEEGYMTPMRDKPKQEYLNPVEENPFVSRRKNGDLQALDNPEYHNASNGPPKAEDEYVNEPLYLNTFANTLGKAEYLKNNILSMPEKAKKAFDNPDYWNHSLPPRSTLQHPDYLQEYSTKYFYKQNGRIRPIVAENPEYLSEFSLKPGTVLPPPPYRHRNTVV

[4] = target: Tyrosine-protein kinase HCK (Homo sapiens) (UniProt P08631); assay: Inhibition of recombinant full length N-terminal GST-tagged human HCK expressed in baculovirus expression system at 500 nM using Tyr 02 as substrate incubated for 1 hr in presence of ATP at its Km concentration by Z'-LYTE assay relative to control
Chain of Tyrosine-protein kinase HCK (Homo sapiens) (P08631 2-526 limits assumed): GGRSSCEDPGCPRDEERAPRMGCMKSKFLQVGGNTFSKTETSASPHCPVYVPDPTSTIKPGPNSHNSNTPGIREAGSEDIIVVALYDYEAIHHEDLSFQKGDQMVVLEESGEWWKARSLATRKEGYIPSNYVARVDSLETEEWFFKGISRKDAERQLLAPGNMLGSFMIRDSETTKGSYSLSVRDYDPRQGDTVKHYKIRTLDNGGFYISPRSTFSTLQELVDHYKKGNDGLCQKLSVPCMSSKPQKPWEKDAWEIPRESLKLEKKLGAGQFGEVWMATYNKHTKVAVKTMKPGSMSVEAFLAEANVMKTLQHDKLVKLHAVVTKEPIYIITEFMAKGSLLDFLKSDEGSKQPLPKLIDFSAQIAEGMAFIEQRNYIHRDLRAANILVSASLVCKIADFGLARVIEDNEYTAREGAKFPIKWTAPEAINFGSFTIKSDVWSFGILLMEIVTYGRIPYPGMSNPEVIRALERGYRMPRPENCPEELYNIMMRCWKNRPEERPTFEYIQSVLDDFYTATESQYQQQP

[5] = target: Tyrosine-protein kinase JAK2 (Homo sapiens) (UniProt O60674); assay: Inhibition of human recombinant GST tagged JAK2 catalytic domain expressed in baculovirus expression system at 500 nM using Tyr 06 as substrate incubated for 1 hr in presence of ATP at its Km concentration by Z'-LYTE assay relative to control
Chain of Tyrosine-protein kinase JAK2 (Homo sapiens) (O60674 whole entry, the tested form may be a part): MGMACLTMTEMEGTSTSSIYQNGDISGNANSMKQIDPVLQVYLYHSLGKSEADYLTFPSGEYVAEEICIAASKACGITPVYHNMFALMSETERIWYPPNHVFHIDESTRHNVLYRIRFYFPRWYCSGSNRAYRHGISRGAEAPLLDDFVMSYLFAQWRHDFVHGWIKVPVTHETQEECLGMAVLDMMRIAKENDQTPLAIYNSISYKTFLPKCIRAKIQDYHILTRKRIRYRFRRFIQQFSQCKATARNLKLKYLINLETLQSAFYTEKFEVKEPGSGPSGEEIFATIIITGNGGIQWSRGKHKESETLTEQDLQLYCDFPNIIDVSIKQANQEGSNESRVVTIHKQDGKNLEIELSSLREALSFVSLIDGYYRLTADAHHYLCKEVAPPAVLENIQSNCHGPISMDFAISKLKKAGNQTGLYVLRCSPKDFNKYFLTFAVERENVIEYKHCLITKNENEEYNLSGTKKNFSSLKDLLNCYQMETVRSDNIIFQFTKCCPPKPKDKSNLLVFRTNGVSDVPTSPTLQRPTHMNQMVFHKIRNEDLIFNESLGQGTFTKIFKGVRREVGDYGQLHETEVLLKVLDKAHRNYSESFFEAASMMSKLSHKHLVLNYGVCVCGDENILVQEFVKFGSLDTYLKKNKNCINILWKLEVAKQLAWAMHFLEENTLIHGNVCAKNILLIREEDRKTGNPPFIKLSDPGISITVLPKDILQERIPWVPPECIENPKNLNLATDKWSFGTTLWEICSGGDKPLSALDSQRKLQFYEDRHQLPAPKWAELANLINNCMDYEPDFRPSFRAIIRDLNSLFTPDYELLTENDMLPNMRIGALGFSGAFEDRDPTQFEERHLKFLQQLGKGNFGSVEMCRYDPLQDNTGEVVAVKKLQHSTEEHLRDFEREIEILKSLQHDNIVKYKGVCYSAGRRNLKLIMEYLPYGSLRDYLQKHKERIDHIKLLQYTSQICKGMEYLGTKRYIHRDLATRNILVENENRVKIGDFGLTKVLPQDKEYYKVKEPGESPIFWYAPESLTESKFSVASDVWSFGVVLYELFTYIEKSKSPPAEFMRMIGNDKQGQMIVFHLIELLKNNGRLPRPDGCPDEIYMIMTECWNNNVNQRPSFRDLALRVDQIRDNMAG

[6] = target: Mast/stem cell growth factor receptor Kit (Homo sapiens) (UniProt P10721); assay: Inhibition of human recombinant His-tagged c-Kit cytoplasmic domain (544 to 976 residues) expressed in baculovirus expression system at 500 nM using Tyr 06 as substrate incubated for 1 hr in presence of ATP at its Km concentration by Z'-LYTE assay relative to control
[7] = target: Tyrosine-protein kinase Lyn (Homo sapiens) (UniProt P07948); assay: Inhibition of recombinant full length human GST-tagged LYN-A expressed in insect cells at 500 nM using Tyr 02 as substrate incubated for 1 hr in presence of ATP at its Km concentration by Z'-LYTE assay relative to control
Chain of Tyrosine-protein kinase Lyn (Homo sapiens) (P07948 2-512 limits assumed): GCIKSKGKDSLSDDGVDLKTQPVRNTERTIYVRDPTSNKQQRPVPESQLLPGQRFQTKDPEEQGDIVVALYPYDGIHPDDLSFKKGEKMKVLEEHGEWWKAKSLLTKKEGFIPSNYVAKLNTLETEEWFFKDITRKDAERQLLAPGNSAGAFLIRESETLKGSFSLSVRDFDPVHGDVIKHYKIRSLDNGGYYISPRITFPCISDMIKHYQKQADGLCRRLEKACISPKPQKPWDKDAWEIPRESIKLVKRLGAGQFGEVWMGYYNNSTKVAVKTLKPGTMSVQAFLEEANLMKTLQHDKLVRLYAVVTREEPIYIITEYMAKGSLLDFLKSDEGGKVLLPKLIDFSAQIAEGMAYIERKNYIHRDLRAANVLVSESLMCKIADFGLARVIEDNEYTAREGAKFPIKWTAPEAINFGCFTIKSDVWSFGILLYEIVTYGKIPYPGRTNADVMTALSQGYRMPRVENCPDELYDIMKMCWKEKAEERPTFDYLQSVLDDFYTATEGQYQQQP

[8] = target: Dual specificity mitogen-activated protein kinase kinase 1 (Homo sapiens) (UniProt Q02750); assay: Inhibition of recombinant full length human His-tagged MAP2K1 expressed in baculovirus expression system at 500 nM using Ser/Thr 03 as substrate incubated for 1 hr in presence of ATP at its Km concentration by Z'-LYTE assay relative to control
[9] = target: Mitogen-activated protein kinase 1 (Homo sapiens) (UniProt P28482); assay: Inhibition of recombinant full length GST-tagged human MAPK1 expressed in Escherichia coli at 500 nM using Ser/Thr 03 as substrate incubated for 1 hr in presence of 100 uM ATP by Z'-LYTE assay relative to control
Chain of Mitogen-activated protein kinase 1 (Homo sapiens) (P28482 whole entry): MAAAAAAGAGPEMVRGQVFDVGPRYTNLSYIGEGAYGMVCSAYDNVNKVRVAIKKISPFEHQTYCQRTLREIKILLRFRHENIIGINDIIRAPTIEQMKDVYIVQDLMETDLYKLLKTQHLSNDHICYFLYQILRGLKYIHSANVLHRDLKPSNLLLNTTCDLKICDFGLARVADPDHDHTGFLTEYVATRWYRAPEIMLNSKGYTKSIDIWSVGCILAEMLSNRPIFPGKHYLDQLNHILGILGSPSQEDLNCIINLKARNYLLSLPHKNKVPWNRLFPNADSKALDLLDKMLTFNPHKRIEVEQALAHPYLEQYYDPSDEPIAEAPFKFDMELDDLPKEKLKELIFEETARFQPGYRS

[10] = target: Mitogen-activated protein kinase 14 (Homo sapiens) (UniProt Q16539); assay: Inhibition of recombinant human GST-tagged full length MAPK14 expressed in Escherichia coli expression system at 500 nM using Ser/Thr 04 as substrate incubated for 1 hr in presence of ATP at its Km concentration by Z'-LYTE assay relative to control
[11] = target: Serine/threonine-protein kinase pim-2 (Homo sapiens) (UniProt Q9P1W9); assay: Inhibition of recombinant full length GST-tagged human PIM2 expressed in baculovirus expression system at 500 nM using Ser/Thr 07 as substrate incubated for 1 hr in presence of ATP at its Km concentration by Z'-LYTE assay relative to control
[12] = target: Serine/threonine-protein kinase PLK1 (Homo sapiens) (UniProt P53350); assay: Inhibition of recombinant full length human His-tagged PLK1 expressed in baculovirus expression system at 500 nM using Ser/Thr 16 as substrate incubated for 1 hr in presence of ATP at its Km concentration by Z'-LYTE assay relative to control
Chain of Serine/threonine-protein kinase PLK1 (Homo sapiens) (P53350 whole entry): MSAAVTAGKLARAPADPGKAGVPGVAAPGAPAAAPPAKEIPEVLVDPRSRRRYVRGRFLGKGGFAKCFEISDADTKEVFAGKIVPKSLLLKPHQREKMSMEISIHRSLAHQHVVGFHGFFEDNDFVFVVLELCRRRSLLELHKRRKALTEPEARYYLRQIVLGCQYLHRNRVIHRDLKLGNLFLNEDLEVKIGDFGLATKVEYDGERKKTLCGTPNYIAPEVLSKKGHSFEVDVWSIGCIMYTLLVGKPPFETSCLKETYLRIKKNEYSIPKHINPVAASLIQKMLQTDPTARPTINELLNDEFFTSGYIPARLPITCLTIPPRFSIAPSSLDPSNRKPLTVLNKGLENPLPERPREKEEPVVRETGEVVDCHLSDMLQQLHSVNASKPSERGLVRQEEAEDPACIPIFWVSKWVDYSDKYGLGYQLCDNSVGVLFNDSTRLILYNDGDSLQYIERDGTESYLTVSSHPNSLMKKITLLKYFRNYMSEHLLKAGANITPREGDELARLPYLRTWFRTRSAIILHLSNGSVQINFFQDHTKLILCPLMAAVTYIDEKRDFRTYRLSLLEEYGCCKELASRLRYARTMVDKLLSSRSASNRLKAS

[13] = target: Proto-oncogene tyrosine-protein kinase Src (Homo sapiens) (UniProt P12931); assay: Inhibition of recombinant human His-tagged full length SRC expressed in baculovirus expression system at 500 nM using Tyr 02 as substrate incubated for 1 hr in presence of ATP at its Km concentration by Z'-LYTE assay relative to control
Chain of Proto-oncogene tyrosine-protein kinase Src (Homo sapiens) (P12931 2-536 limits assumed): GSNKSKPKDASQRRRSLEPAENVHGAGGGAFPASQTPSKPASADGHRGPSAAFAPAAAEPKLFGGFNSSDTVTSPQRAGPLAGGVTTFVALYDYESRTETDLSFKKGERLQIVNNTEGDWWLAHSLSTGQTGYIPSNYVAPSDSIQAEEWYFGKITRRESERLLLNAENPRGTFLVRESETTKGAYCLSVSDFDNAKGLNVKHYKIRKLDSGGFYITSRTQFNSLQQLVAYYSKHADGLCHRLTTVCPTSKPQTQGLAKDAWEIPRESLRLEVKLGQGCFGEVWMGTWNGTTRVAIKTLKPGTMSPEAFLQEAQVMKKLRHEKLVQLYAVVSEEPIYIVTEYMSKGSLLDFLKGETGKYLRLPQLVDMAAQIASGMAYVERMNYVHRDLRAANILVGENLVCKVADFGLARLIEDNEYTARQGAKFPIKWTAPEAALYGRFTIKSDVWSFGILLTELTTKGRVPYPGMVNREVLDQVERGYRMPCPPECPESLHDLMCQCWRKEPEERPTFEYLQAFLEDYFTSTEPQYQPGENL

[14] = target: T2, Testis-specific serine/threonine-protein kinase 2 (Homo sapiens) (UniProt Q96PF2); assay: Inhibition of recombinant full length human His-tagged STK22B expressed in baculovirus expression system at 500 nM using Ser/Thr 04 as substrate incubated for 1 hr in presence of ATP at its Km concentration by Z'-LYTE assay relative to control
T2 sequence (whole entry): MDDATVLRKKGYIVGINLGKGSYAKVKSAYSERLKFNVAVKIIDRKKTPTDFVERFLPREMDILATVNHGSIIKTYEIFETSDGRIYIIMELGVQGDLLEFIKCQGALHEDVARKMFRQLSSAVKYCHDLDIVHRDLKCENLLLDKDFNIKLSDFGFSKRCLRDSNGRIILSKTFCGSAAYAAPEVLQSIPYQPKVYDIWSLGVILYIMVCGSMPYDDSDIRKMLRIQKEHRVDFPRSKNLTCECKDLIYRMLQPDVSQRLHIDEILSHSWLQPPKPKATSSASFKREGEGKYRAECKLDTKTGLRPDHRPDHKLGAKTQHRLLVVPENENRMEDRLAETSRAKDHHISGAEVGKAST

[15] = target: Tyrosine-protein kinase SYK (Homo sapiens) (UniProt P43405); assay: Inhibition of recombinant human N-terminal GST-tagged full length SYK expressed in baculovirus expression system at 500 nM using Tyr 02 as substrate incubated for 1 hr in presence of ATP at its Km concentration by Z'-LYTE assay relative to control
BaF3 = assay: Antiproliferative activity against mouse Ba/F3 cells expressing EGFR-L858R mutant assessed as inhibition of cell growth incubated for 48 hrs by XTT assay; type: functional, cell-based; conditions: BaF3, 48 h
[16] = target: T1, Epidermal growth factor receptor; conditions: dose 100.0 nM
Description: Inhibition of human EGFR at 100 nM using poly[Glu:Tyr] (4:1) as substrate in presence of [gamma33P]ATP by radiometric HotSpot assay relative to control

Row | IC50 [1] [µM] | inhibition [2] [%] | inhibition [3] [%] | inhibition [4] [%] | inhibition [5] [%] | inhibition [6] [%] | inhibition [7] [%] | inhibition [8] [%] | inhibition [9] [%] | inhibition [10] [%] | inhibition [11] [%] | inhibition [12] [%] | inhibition [13] [%] | inhibition [14] [%] | inhibition [15] [%] | IC50 (BaF3) [µM] | inhibition ([16]; tested as the 2H-labelled form) [%] | inhibition [16] [%] | SMILES
1 | 0.0004 | 50 | 79 | 30 | 11 | 17 | 52 | -4 | 1 | 24 | 5 | – | 59 | -2 | 14 | 0.134 | 99 | – | COc1ccccc1-c1cc2c(N[C@H](CO)c3ccccc3)ncnc2[nH]1
2 | – | – | – | – | – | 17 | – | – | 7 | – | – | -9 | – | – | – | 0.087 | – | – | C#Cc1cccc(Nc2ncnc3cc(OCCOC)c(OCCOC)cc23)c1 [ERLOTINIB]
3 | 0.0002 | 33 | 62 | 27 | 11 | – | 14 | 10 | 1 | 10 | 2 | -3 | 40 | 2 | 11 | 0.098 | – | 98 | CCOc1ccccc1-c1cc2c(N[C@H](CO)c3ccccc3)ncnc2[nH]1

Continued, compound first:

Row | SMILES | IC50 [1] [µM] | inhibition [2] [%] | inhibition [3] [%] | inhibition [4] [%] | inhibition [5] [%] | inhibition [6] [%] | inhibition [7] [%] | inhibition [8] [%] | inhibition [9] [%] | inhibition [10] [%] | inhibition [11] [%] | inhibition [12] [%] | inhibition [13] [%] | inhibition [14] [%] | inhibition [15] [%] | IC50 (BaF3) [µM] | inhibition ([16]; tested as the 2H-labelled form) [%] | inhibition [16] [%]
4 | OC[C@@H](Nc1ncnc2[nH]c(-c3ccccc3)cc12)c1ccccc1 | 0.0008 | 65 | 51 | 29 | 34 | 20 | 47 | -8 | 1 | 19 | 9 | 1 | 59 | -3 | 29 | – | – | –
5 | OCC[C@@H](Nc1ncnc2[nH]c(-c3ccccc3)cc12)c1ccccc1 | 0.0005 | 38 | 15 | 31 | -1 | – | 16 | 5 | 5 | 14 | 6 | -5 | 25 | 7 | 5 | 0.075 | – | 99
6 | CN(C)CCNCc1ccc(-c2cc3c(N[C@H](CO)c4ccccc4)ncnc3[nH]2)cc1F | 0.0001 | 87 | 74 | 36 | 5 | 1 | 13 | 13 | – | 20 | -5 | -3 | 76 | -6 | 21 | 0.142 | – | 99
